From publication PMC3199943, “Screening the MayBridge Rule of 3 Fragment Library for Compounds That Interact with the Trypanosoma brucei myo-Inositol-3-Phosphate Synthase and/or Show Trypanocidal Activity” (Molecular Biology International, 2011)
Where a name gives a salt, the structure may show the parent alone. Read-outs that look alike come from different tables or passages of the source.

Columns and labels:
HeLa cells = assay: cells; details: for HeLa Cells Alamar Blue: Supplementary Table 1; for viability at 500 µM / CC50: Homo sapiens, HeLa; for viability at 500 µM: 65 h; for CC50: read-out: HeLa ED50
Outline: (§1)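 Alamar Blue read-out after a 5 h dye incubation that followed ~65 h compound exposure. Cells: HeLa or A549, 2 × 10^4/well, DMEM + 10% FCS + 2 mM L-Glutamine.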

A549 cells = assay: Cytotoxicity against A549 cells, Alamar Blue; assay type: cell-based; details: Supplementary Table 1, compound 0.5 mM, percentage of controls (n=1); for viability at 500 µM: Homo sapiens, A549, 65 h
Outline: as §1

[1] = compound 0.5 mM, percentage of controls, mean ± SD (n=3) or SE (n=2)
[2] = read-out: HeLa Cells Alamar Blue

O=C(O)c1cccc2c1OCC2 [compound 297, 2,3‐dihydrobenzo[b]furan‐7‐carboxylic acid]
HeLa Cells Alamar Blue (HeLa cells; [1]): 78.8 ± 7.5 percentage of controls
A549 Cells Alamar Blue (A549 cells): 74.9 percentage of controls

Cc1nc2ccccn2c1CO [compound 287, (2‐methylimidazo[1,2‐a]pyridin‐3‐yl)methanol]
HeLa Cells Alamar Blue (HeLa cells; [1]): 76.2 ± 14 percentage of controls
A549 Cells Alamar Blue (A549 cells): 79.7 percentage of controls

O=C(O)c1ccc(CN2CCCC2)cc1 [compound 665, 4‐(pyrrolidin‐1‐ylmethyl)benzoic acid]
viability at 500 µM (HeLa cells; [2]): 90.3 ± 6.3%
viability at 500 µM (A549 cells): 104%

CSc1ccccc1CN [compound 217, 2‐(methylthio)benzylamine]
viability at 500 µM (HeLa cells; [2]): 27.1 ± 0.5%
viability at 500 µM (A549 cells): 70.3%

OC1CCSCC1 [compound 47, tetrahydro‐2H‐thiopyran‐4‐ol]
viability at 500 µM (HeLa cells; [2]): 95 ± 10%
viability at 500 µM (A549 cells): 74.9%

OCCc1cccnc1 [compound 63, 2‐(3‐pyridyl)ethan‐1‐ol]
viability at 500 µM (HeLa cells; [2]): 105 ± 13.1%
viability at 500 µM (A549 cells): 76.9%

O=C(O)c1sccc1Cl [compound 290, 3‐chlorothiophene‐2‐carboxylic acid]
viability at 500 µM (HeLa cells; [2]): 86.9 ± 14.3%
viability at 500 µM (A549 cells): 117%

Cc1nc(-c2cccc(N)c2)cs1 [compound 546, 3‐(2‐methyl‐1,3‐thiazol‐4‐yl)aniline]
viability at 500 µM (HeLa cells; [2]): 68.5 ± 8.2%
viability at 500 µM (A549 cells): 61.9%

NCc1ccc2c(c1)OCCO2 [compound 306, 2,3‐dihydro‐1,4‐benzodioxin‐6‐ylmethylamine]
HeLa Cells Alamar Blue (HeLa cells; [1]): 109.2 ± 5.6 percentage of controls
A549 Cells Alamar Blue (A549 cells): 72.7 percentage of controls

O=C1CCC(C(F)(F)F)CC1 [compound 317, 4‐(trifluoromethyl)cyclohexan‐1‐one]
viability at 500 µM (HeLa cells; [2]): 111 ± 7.2%
viability at 500 µM (A549 cells): 90.5%

N#Cc1ccccc1-n1cccc1 [compound 336, 2‐(1H‐pyrrol‐1‐yl)benzonitrile]
viability at 500 µM (HeLa cells; [2]): 68.5 ± 16.3%
viability at 500 µM (A549 cells): 134%

CSc1ccc(Cl)cc1N [compound 382, 5‐chloro‐2‐(methylthio)aniline]
viability at 500 µM (HeLa cells; [2]): 110 ± 13.3%
viability at 500 µM (A549 cells): 60.7%

Cn1nc(CO)cc1-c1cccs1 [compound 586, (1‐methyl‐5‐thien‐2‐yl‐1H‐pyrazol‐3‐yl)methanol]
HeLa Cells Alamar Blue (HeLa cells; [1]): 82 ± 15.2 percentage of controls
A549 Cells Alamar Blue (A549 cells): 63.4 percentage of controls

O=C(O)c1cccs1 [compound 85, thiophene‐2‐carboxylic acid]
viability at 500 µM (HeLa cells; [2]): 100 ± 7.4%
viability at 500 µM (A549 cells): 119%

c1ccc(-c2cn3c(n2)SCC3)cc1 [compound 639, 6‐phenyl‐2,3‐dihydroimidazo[2,1‐b][1,3]thiazole]
HeLa Cells Alamar Blue (HeLa cells; [1]): 61 ± 9.8 percentage of controls
A549 Cells Alamar Blue (A549 cells): 109.1 percentage of controls

OCc1ccc(-c2ccsc2)cc1 [compound 545, (4‐thien‐3‐ylphenyl)methanol]
viability at 500 µM (HeLa cells; [2]): 84.3 ± 13.2%
viability at 500 µM (A549 cells): 87.2%

COC(=O)c1ccccc1F [compound 220, methyl 2‐fluorobenzoate]
viability at 500 µM (HeLa cells; [2]): 108 ± 17.6%
viability at 500 µM (A549 cells): 99.5%

OCc1ccccc1Oc1ccccc1 [compound 621, (2‐phenoxyphenyl)methanol]
viability at 500 µM (HeLa cells; [2]): 74.9 ± 14.8%
viability at 500 µM (A549 cells): 73.7%

N#CCCn1cccc1 [compound 50, 3‐(1H‐pyrrol‐1‐yl)propanenitrile]
viability at 500 µM (HeLa cells; [2]): 75.4 ± 6.4%
viability at 500 µM (A549 cells): 140%

N#Cc1ccsc1N [compound 68, 2‐aminothiophene‐3‐carbonitrile]
viability at 500 µM (HeLa cells; [2]): 102 ± 3.1%
viability at 500 µM (A549 cells): 136%

CC(=O)Nc1ccc(Cl)cc1C [compound 473, 4‐chloro‐2‐methylacetanilide]
viability at 500 µM (HeLa cells; [2]): 109 ± 11.9%
viability at 500 µM (A549 cells): 76.1%

NC1CCN(Cc2ccccc2)CC1 [compound 548, 1‐benzylpiperidin‐4‐amine]
viability at 500 µM (HeLa cells; [2]): 39.5 ± 10%
viability at 500 µM (A549 cells): 89.3%

COC(=O)c1ccc2ncccc2c1 [compound 515, methyl quinoline‐6‐carboxylate]
viability at 500 µM (HeLa cells; [2]): 69.9 ± 8.1%
viability at 500 µM (A549 cells): 67.8%

OCc1ccc2c(c1)OCO2 [compound 200, 1,3‐benzodioxol‐5‐ylmethanol]
viability at 500 µM (HeLa cells; [2]): 85.2 ± 9.3%
viability at 500 µM (A549 cells): 92.1%

CN(C(N)=S)c1ccccc1 [compound 325, N‐methyl‐N‐phenylthiourea]
viability at 500 µM (HeLa cells; [2]): 33.9 ± 11.6%
CC50 (HeLa cells): 415 ± 24 µM
viability at 500 µM (A549 cells): 82.7%

Nc1cccc(N)c1 [compound 461, benzene‐1,3‐diamine dihydrochloride]
viability at 500 µM (HeLa cells; read-out: HeLa Cells Alamar Blue, Supplementary Table 1, compound 0.5 mM, percentage of controls, mean ± SD (n=3) or SE (n=2)): 106 ± 10.7%
viability at 500 µM (A549 cells): 91.8%

OCc1cc(-c2cccs2)on1 [compound 462, [5‐(2‐thienyl)‐3‐isoxazolyl]methanol]
viability at 500 µM (HeLa cells; [2]): 75.6 ± 5.9%
viability at 500 µM (A549 cells): 76.2%

CC(=O)c1cccc(F)c1 [compound 125, 1‐(3‐fluorophenyl)ethan‐1‐one]
viability at 500 µM (HeLa cells; [2]): 83 ± 14.8%
viability at 500 µM (A549 cells): 101%

Cn1nc(CO)cc1-c1ccccc1 [compound 525, (1‐methyl‐5‐phenyl‐1H‐pyrazol‐3‐yl)methanol]
HeLa Cells Alamar Blue (HeLa cells; [1]): 64.8 ± 9.8 percentage of controls
A549 Cells Alamar Blue (A549 cells): 64.6 percentage of controls

O=C1CSC(c2cccs2)C1 (centres unmarked) [compound 482, 5‐(2‐thienyl)tetrahydrothiophen‐3‐one]
viability at 500 µM (HeLa cells; [2]): 116 ± 6.7%
viability at 500 µM (A549 cells): 112%

NC(=O)c1cccs1 [compound 80, thiophene‐2‐carboxamide]
viability at 500 µM (HeLa cells; [2]): 106 ± 17.5%
viability at 500 µM (A549 cells): 90.3%

COC(=O)c1cc2ccsc2[nH]1 [compound 463, methyl 6H‐thieno[2,3‐b]pyrrole‐5‐carboxylate]
HeLa Cells Alamar Blue (HeLa cells; [1]): 101.3 ± 11 percentage of controls
A549 Cells Alamar Blue (A549 cells): 59.7 percentage of controls

CNCc1ccc(Cl)cc1 [compound 231, N‐(4‐chlorobenzyl)‐N‐methylamine]
viability at 500 µM (HeLa cells; [2]): 113 ± 3.7%
viability at 500 µM (A549 cells): 107%

Cc1nc(-c2ccccc2)ncc1CO [compound 623, (4‐methyl‐2‐phenyl‐5‐pyrimidinyl)methanol]
HeLa Cells Alamar Blue (HeLa cells; [1]): 66.5 ± 11.6 percentage of controls
A549 Cells Alamar Blue (A549 cells): 85.4 percentage of controls

OCCc1ccc2c(c1)OCO2 [compound 321, 2‐(1,3‐benzodioxol‐5‐yl)ethanol]
viability at 500 µM (HeLa cells; [2]): 109 ± 5.9%
viability at 500 µM (A549 cells): 138%

Cc1cc(C)n(C)n1 [compound 24, 1,3,5‐trimethyl‐1H‐pyrazole]
viability at 500 µM (HeLa cells; [2]): 99.7 ± 11.5%
viability at 500 µM (A549 cells): 88.5%

OCc1ccc(Oc2ccccc2)cc1 [compound 622, (4‐phenoxyphenyl)methanol]
viability at 500 µM (HeLa cells; [2]): 78.3 ± 15.4%
viability at 500 µM (A549 cells): 70.7%

CCCCc1nc(CO)c[nH]1 [compound 223, (2‐butyl‐1H‐imidazol‐4‐yl)methanol]
viability at 500 µM (HeLa cells; [2]): 105 ± 13.7%
viability at 500 µM (A549 cells): 139%

COC(=O)CSc1ccccc1 [compound 466, methyl 2‐(phenylthio)acetate]
viability at 500 µM (HeLa cells; [2]): 102 ± 4.8%
viability at 500 µM (A549 cells): 84.7%

N#CC(c1ccccc1)N1CCOCC1 (centres unmarked) [compound 638, 2‐morpholino‐2‐phenylacetonitrile]
viability at 500 µM (HeLa cells; [2]): 80.5 ± 8.2%
viability at 500 µM (A549 cells): 89.8%

O=C(O)C1COc2ccccc2C1 (centres unmarked) [compound 431, 3‐chromanecarboxylic acid]
viability at 500 µM (HeLa cells; [2]): 102 ± 5.9%
viability at 500 µM (A549 cells): 95.8%

OCc1csc2ccc(Cl)cc12 [compound 608, (5‐chloro‐1‐benzothiophen‐3‐yl)methanol]
viability at 500 µM (HeLa cells; [2]): 78.3 ± 1%
viability at 500 µM (A549 cells): 63.8%

Clc1ccsc1 [compound 48, 3‐chlorothiophene]
viability at 500 µM (HeLa cells; [2]): 95.5 ± 2%
viability at 500 µM (A549 cells): 101%

Nc1nc(-c2ccccc2)ns1 [compound 423, 3‐phenyl‐1,2,4‐thiadiazol‐5‐amine]
viability at 500 µM (HeLa cells; [2]): 82.7 ± 3.9%
viability at 500 µM (A549 cells): 52.7%

NCc1cccc(F)c1 [compound 70, 3‐fluorobenzylamine]
viability at 500 µM (HeLa cells; [2]): 104 ± 17.4%
viability at 500 µM (A549 cells): 104%

Nc1ccc(-n2cccc2)cc1 [compound 250, 4‐(1H‐pyrrol‐1‐yl)aniline]
viability at 500 µM (HeLa cells; [2]): 107 ± 16.6%
CC50 (HeLa cells): 1400 ± 100 µM
viability at 500 µM (A549 cells): 89.1%

Cc1ccc(C(N)=O)cc1C [compound 177, 3,4‐dimethylbenzamide]
viability at 500 µM (HeLa cells; [2]): 81.7 ± 16.8%
viability at 500 µM (A549 cells): 64.2%

CNCc1ccc(N2CCCCC2)cc1 [compound 657, N‐methyl‐N‐(4‐piperidin‐1‐ylbenzyl)amine]
viability at 500 µM (HeLa cells; [2]): 40.9 ± 12%
viability at 500 µM (A549 cells): 77.4%

COc1ccc(N)c(OC)c1 [compound 213, 2,4‐dimethoxyaniline]
viability at 500 µM (HeLa cells; [2]): 14 ± 8.2%
CC50 (HeLa cells): 710 ± 96 µM
viability at 500 µM (A549 cells): 61.2%

Clc1cn2ccsc2n1 [compound 253, 6‐chloroimidazo[2,1‐b][1,3]thiazole]
viability at 500 µM (HeLa cells; [2]): 82.1%
viability at 500 µM (A549 cells): 85.1%

CC12CCC(CC1=NO)C2(C)C (centres unmarked) [compound 332, 1,7,7‐trimethylbicyclo[2.2.1]heptan‐2‐one oxime]
HeLa Cells Alamar Blue (HeLa cells; [1]): 110.6 ± 8.3 percentage of controls
A549 Cells Alamar Blue (A549 cells): 93.9 percentage of controls

COc1cc2c(cc1OC)C(C)=NCC2 [compound 664, 6,7‐dimethoxy‐1‐methyl‐3,4‐dihydroisoquinoline]
HeLa Cells Alamar Blue (HeLa cells; [1]): 75.4 ± 2.2 percentage of controls
A549 Cells Alamar Blue (A549 cells): 77.7 percentage of controls

NS(=O)(=O)c1ccc(F)cc1F [compound 576, 2,4‐difluorobenzenesulfonamide]
viability at 500 µM (HeLa cells; [2]): 10.7 ± 9.3%
viability at 500 µM (A549 cells): 12.9%

Cc1nc(CCN)cs1 [compound 141, 2‐(2‐methyl‐1,3‐thiazol‐4‐yl)ethylamine]
viability at 500 µM (HeLa cells; [2]): 98.9 ± 7.6%
viability at 500 µM (A549 cells): 105%

CNCc1scc2c1OCCO2 [compound 495, N‐(2,3‐dihydrothieno[3,4‐b][1,4]dioxin‐5‐ylmethyl)‐N‐methylamine]
HeLa Cells Alamar Blue (HeLa cells; [1]): 43.6 ± 17.7 percentage of controls
A549 Cells Alamar Blue (A549 cells): 96.9 percentage of controls
